Measured values from patent US10202391B2, “Chemical compounds” (AstraZeneca AB, priority 2015, dated 2019).

Legend:
[1] = molecular target: T1, ERK2 (Homo sapiens, UniProt P28482); assay: ERK2 Rapidfire Mass Spectrometry Inhibition of Catalysis Assay; type: biochemical; conditions: 1.2 nM ERK2, 16 μM Erktide, 120 μM ATP (measured Km), 15 minute pre-incubation; read-out: ERK2 Mass Spectrometry Enzyme IC50
T1 construct: made in house
Experimental: (§1) All compounds or DMSO (dimethyl sulphoxide) for the ERK2 Mass Spectrometry and A375 phospho-p90RSK assays were dispensed from source plates containing compounds at 10 mM in 100% (v/v) DMSO or 100% DMSO, directly into assay plates using an Echo 555 Acoustic dispenser (Labcyte Inc™). Depending on the assay, two separate plate preparations were followed. In Workflow A, 10 mM compound stocks were diluted 1:100 using a fixed-tip 96-head Agilent VPrep liquid handler (Agilent Technologies, Santa Clara, Calif.) to give four intermediate dilutions (10 mM, 100 μM, 1 μM, 10 nM). In Workflow B, 10 mM compound stocks were diluted 1:10 using a Tecan Freedom Evo (Tecan Group Ltd., Switzerland), and then 1:100 using the Echo 555 and Labcyte LX to produce three intermediate dilutions across three Labcyte qualified source plates (1 mM, 10 μM, 100 nM). These intermediate dilution plates were then used by the Echo 555 to generate final assay-ready compound plates with a 12 point dose range (10, 3, 1, 0.25, 0.1, 0.03, 0.01, 0.0025, 0.001, 0.0003, 0.0001, 0.0000125 μM) in order to calculate compound IC50s, with a total DMSO concentration in the assay of 1%. For the ERK2 Mass Spectrometry assay Workflow B was used. For the A375 phospho-p90RSK cell assay, the intermediate 1:100 dilution plate described in Workflow A was used by the Echo to dispense compounds and DMSO directly into the cell plates with a 12 point dose range (30, 10, 3.125, 1.25, 0.3, 0.1, 0.03125, 0.0125, 0.003, 0.001, 0.0003125, 0.00003 μM) in order to calculate compound IC50's, with a total DMSO concentration in the assay of 0.3%.
ERK2 Rapidfire Mass Spectrometry Inhibition of Catalysis Assay
MEK U911-activated ERK2 protein was expressed and purified in-house. Enzyme and substrate solutions were made up in assay buffer consisting of 50 mM Tris (pH 7.5), 10 mM MgCl2, 0.1 mM EGTA (ethylene glycol tetraacetic acid), 10 mM DTT (dithiothreitol) and 0.01% (v/v) CHAPS (3-[(3-Cholamidopropyl)dimethylammonio]-1-propanesulfonate). 1.2 nM ERK2 protein was prepared in assay buffer and 10 μl was dispensed into each well of a polypropylene, 384-well plate (#781201, Greiner) containing test and reference control compounds. […] The reaction was allowed to progress for 20 minutes at room temperature before being quenched by the addition of 80 al 1% (v/v) formic acid. The assay plates were then run on the RapidFire Mass Spectrometry platform (Agilent) to measure substrate (unphosphorylated Erktide) and product (phosphorylated Erktide) levels. Data was analysed and IC50's (half maximal inhibitory concentration) were calculated using Genedata Screener® software.

[2] = test system: phospho-p90RSK in A375 cell line; assay: A375 Phospho-p90RSK Cellular Assay; type: cell-based, human; conditions: A375 cells, 2 hours incubation
Experimental: as §1
A375 Phospho-p90RSK Cellular Assay
A375 cells were cultured in cell media composed of DMEM (Dulbecco's modified Eagle's medium), 10% (v/v) Foetal Calf Serum and 1% (v/v) L-Glutamine. After harvesting, cells were dispensed into black, 384-well Costar plates (#3712, Corning) to give 2400 cells per well in a total volume of 40 μl cell media, and were incubated overnight at 37° C., 90% relative humidity and 5% CO2 in a rotating incubator. Test compounds and reference controls were dosed directly into the cell plates using a Labcyte Echo 555 acoustic dispenser. The cell plates were then incubated for 2 hours at 37° C. before being fixed by the addition of 20 μl 12% formaldehyde in PBS/A (4% final concentration), followed by a 20 minute room temperature incubation, and then a 2× wash with 150 μl PBS/A (phosphate buffered saline containing albumin) using a BioTek ELx405 platewasher. Cells were permeabilised with 20 μl 0.1% Triton X-100 in PBS/A for 20 minutes at room temperature, and then washed 1× with 100 μl PBS/A. Primary phospho-p90RSK (Thr359) (D1E9) rabbit monoclonal antibody (#8753, Cell Signaling Technology) was diluted 1:1000 in assay buffer (0.05% (v/v) Tween, 5% (v/v) Foetal Calf Serum, in PBS/A), 20 μl added per well, and plates were incubated at 4° C. overnight. Cell plates were washed 2× with 200 μl PBS/T (phosphate buffered saline containing Tween-20), then 20 μl 1:500 dilution in assay buffer of Alexa Fluor® 647 goat anti-rabbit IgG secondary antibody (#A31573, Molecular Probes, Life Technologies), with a 1:5000 dilution of Hoechst 33342, was added per well. Following a 90 minute incubation at room temperature, plates were washed 2× with 200 μl PBS/T, and 40 μl PBS/A was added per well. Stained cell plates were covered with black lid seals, and then read on a Cellomics ArrayScan™ VTI imaging platform (Thermo Scientific), using an XF53 filter with 10× objective, with a LED light source set-up to analyse nuclear staining with Hoechst 33342 (405 nm) and secondary antibody staining of phospho-p90RSK (647 nm). Data was analysed and IC50's were calculated using Genedata Screener® software.

[3] = test system: A549 xenograft; assay: Tumour growth inhibition in A549 xenograft model; type: in vivo, mice; conditions: selumetinib 25 mg/kg BiD or Example 18a 25 mg/kg QD, peroral, continuously for 3 weeks, relative to vehicle
Experimental: A549 is a human non small cell lung cancer line carrying an oncogenic mutation in the KRAS gene (G12S). Female nude mice (Harlan, UK) were implanted subcutaneously (s.c.) on the left flank, with 5×10^6 A549 cells (ATCC) per mouse.
Tumour growth was monitored by twice weekly calliper measurement and volumes calculated using elliptical formula (pi/6×width×width×length). Once tumours had reached a volume of ˜200-300 mm^3 animals were randomised into groups of 7-11 and were treated with a continuous combination schedule of selumetinib (ARRY-142886) 25 mg/kg BiD and Example 18a 25 mg/kg QD (four hours after first selumetinib dose), both were dosed by peroral route. Tumour volumes were measured twice weekly after dosing commenced.
Selumetinib was formulated in HPMC/Tween (0.5% Methocel [hydroxypropyl methocellulose]/0.1% Polysorbate 80), the suspension was stirred over night. Example 18a was formulated in 10% DMSO, 90% of a 40% kleptose solution (Kleptose is sourced from Roquette—Pharma [Trademarked] Hydroxypropyl betacyclodextrin—suitable for in-vivo use and formulations).
Studies were performed in the A549 xenograft model. Selumetinib was dosed twice daily (BiD) 8 hours apart and Example 18a was dosed once daily (QD) 4 hours after the first selumetinib dose. Both compounds were dosed continuously for 3 weeks. Both vehicles were dosed in the vehicle group.

T1 sequence (P28482 whole entry): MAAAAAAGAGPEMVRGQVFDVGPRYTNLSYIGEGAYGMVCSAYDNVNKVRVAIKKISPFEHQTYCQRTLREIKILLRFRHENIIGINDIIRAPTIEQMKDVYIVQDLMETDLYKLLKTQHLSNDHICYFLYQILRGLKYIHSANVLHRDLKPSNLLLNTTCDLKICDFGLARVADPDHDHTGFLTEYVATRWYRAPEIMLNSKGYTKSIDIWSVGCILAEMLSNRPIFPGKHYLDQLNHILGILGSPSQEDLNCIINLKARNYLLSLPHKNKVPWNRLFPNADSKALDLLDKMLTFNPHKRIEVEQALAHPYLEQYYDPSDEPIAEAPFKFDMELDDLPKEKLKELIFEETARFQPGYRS

IC50 [1] | IC50 ([2]; Homo sapiens, A-375) | IC50 [2] | IC50 ([2]; Homo sapiens, A-375, 2 h) | SMILES | tumour growth, single agent [3]
2 nM | 110 nM | – | – | Cc1cnc(Nc2ccnn2C)nc1-c1cn2c(n1)C(=O)N(Cc1cccc(C(F)(F)F)n1)CC2 [Example 5, 2-(5-Methyl-2-((1-methyl-1H-pyrazol-5-yl)amino)pyrimidin-4-yl)-7-((6-(trifluoromethyl)pyridin-2-yl)methyl)-6,7-dihydroimidazo[1,2-a]pyrazin-8(5H)-one] | –
0.6 nM | – | 7.4 nM | – | COC[C@H]1Cn2cc(-c3nc(Nc4ccnn4C)ncc3C)nc2C(=O)N1Cc1ccc(F)c(F)c1 [Example 18a, (R)-7-(3,4-Difluorobenzyl)-6-(methoxymethyl)-2-(5-methyl-2-((1-methyl-1H-pyrazol-5-yl)amino)pyrimidin-4-yl)-6,7-dihydroimidazo[1,2-a]pyrazin-8(5H)-one Ethanesulfonic acid adduct Form 1] | reduced tumour growth relative to vehicle only control
0.8 nM | – | – | 31 nM | Cc1cnc(Nc2ccnn2C)nc1-c1cn2c(n1)C(=O)N(Cc1ccc(F)c(F)c1)CC2 [Example 33, 7-(3,4-Difluorobenzyl)-2-(5-methyl-2-((1-methyl-1H-pyrazol-5-yl)amino)pyrimidin-4-yl)-6,7-dihydroimidazo[1,2-a]pyrazin-8(5H)-one] | –
1.8 nM | 70 nM | – | – | COC[C@H]1Cn2cc(-c3nc(Nc4ccnn4C)ncc3C)nc2C(=O)N1Cc1cccc(C(F)(F)F)n1 [Example 39, (R)-6-(Methoxymethyl)-2-(5-methyl-2-((1-methyl-1H-pyrazol-5-yl)amino)pyrimidin-4-yl)-7-((6-(trifluoromethyl)pyridin-2-yl)methyl)-6,7-dihydroimidazo[1,2-a]pyrazin-8(5H)-one] | –
0.5 nM | 110 nM | – | – | Cc1cnc(Nc2ccnn2C)nc1-c1cn2c(n1)C(=O)N(Cc1cccc(OC(F)F)c1)[C@@H](C)C2 [Example 28, (S)-7-(3-(Difluoromethoxy)benzyl)-6-methyl-2-(5-methyl-2-((1-methyl-1H-pyrazol-5-yl)amino)pyrimidin-4-yl)-6,7-dihydroimidazo[1,2-a]pyrazin-8(5H)-one] | –
0.8 nM | 19 nM | – | – | Cc1cnc(Nc2ccnn2C)nc1-c1cn2c(n1)C(=O)N(Cc1cc(F)cc(F)c1)[C@@H](C)C2 [Example 22, (S)-7-(3,5-Difluorobenzyl)-6-methyl-2-(5-methyl-2-((1-methyl-1H-pyrazol-5-L)amino)pyrimidin-4-yl)-6,7-dihydroimidazo[1,2-a]pyrazin-8(5H)-one] | –
0.7 nM | 86 nM | – | – | C[C@H]1Cn2cc(-c3ccnc(Nc4ccnn4C)n3)nc2C(=O)N1Cc1cccc(Cl)c1 [Example 2, (S)-7-(3-Chlorobenzyl)-6-methyl-2-(2-((1-methyl-1H-pyrazol-5-yl)amino)pyrimidin-4-yl)-6,7-dihydroimidazo[1,2-a]pyrazin-8(5H)-one] | –
0.6 nM | 25 nM | – | – | C[C@H]1Cn2cc(-c3nc(Nc4ccnn4C)ncc3Cl)nc2C(=O)N1Cc1ccc(F)c(F)c1 [Example 6, (S)-2-(5-Chloro-2-((1-methyl-1H-pyrazol-5-yl)amino)pyrimidin-4-yl)-7-(3,4-difluorobenzyl)-6-methyl-6,7-dihydroimidazo[1,2-a]pyrazin-8(5H)-one] | –
1.1 nM | 120 nM | – | – | COC[C@H]1Cn2cc(-c3nc(Nc4ccnn4C)ncc3C)nc2C(=O)N1Cc1cccc(C(F)F)n1 [Example 16, (R)-7-((6-(Difluoromethyl)pyridin-2-yl)methyl)-6-(methoxymethyl)-2-(5-methyl-2-((1-methyl-1H-pyrazol-5-yl)amino)pyrimidin-4-yl)-6,7-dihydroimidazo[1,2-a]pyrazin-8(5H)-one] | –
0.6 nM | 3 nM | – | – | Cc1cnc(Nc2ccnn2C)nc1-c1cn2c(n1)C(=O)N(Cc1ccc(F)c(Cl)c1)CC2 [Example 12, 7-(3-Chloro-4-fluorobenzyl)-2-(5-methyl-2-((1-methyl-1H-pyrazol-5-yl)amino)pyrimidin-4-yl)-6,7-dihydroimidazo[1,2-a]pyrazin-8(5H)-one] | –
0.6 nM | 11 nM | – | – | Cc1cnc(Nc2ccnn2C)nc1-c1cn2c(n1)C(=O)N(Cc1cccc(C(F)F)c1)[C@@H](C)C2 [Example 21, (S)-7-(3-(Difluoromethyl)benzyl)-6-methyl-2-(5-methyl-2-((1-methyl-1H-pyrazol-5-yl)amino)pyrimidin-4-yl)-6,7-dihydroimidazo[1,2-a]pyrazin-8(5H)-one] | –
0.6 nM | 150 nM | – | – | Cc1cnc(Nc2ccnn2C)nc1-c1cn2c(n1)C(=O)N(Cc1cccc(C(F)F)n1)CC2 [Example 15, 7-((6-(Difluoromethyl)pyridin-2-yl)methyl)-2-(5-methyl-2-((1-methyl-1H-pyrazol-5-yl)amino)pyrimidin-4-yl)-6,7-dihydroimidazo[1,2-a]pyrazin-8(5H)-one] | –
0.5 nM | 84 nM | – | – | COc1cc(CN2C(=O)c3nc(-c4nc(Nc5ccnn5C)ncc4C)cn3C[C@@H]2C)ccc1F [Example 24, (S)-7-(4-Fluoro-3-methoxybenzyl)-6-methyl-2-(5-methyl-2-((1-methyl-1H-pyrazol-5-yl)amino)pyrimidin-4-yl)-6,7-dihydroimidazo[1,2-a]pyrazin-8(5H)-one] | –
